From ChEMBL document CHEMBL4610017, “Discovery of 1,2,4-oxadiazole derivatives as a novel class of noncompetitive inhibitors of 3-hydroxykynurenine transaminase (HKT) from Aedes aegypti” (Bioorg Med Chem, 2020) come the findings set out here.

Active and inactive are the calls of the source. The rule behind the calls is not given here.

Assay [1] in a line: Competitive inhibition of Anopheles gambiae 3-hydroxykynurenine transaminase.
Assay [2] can be described thus: Inhibition of recombinant Aedes aegypti RecLab N-terminal Trx-fused/His6-tagged 3-hydroxykynurenine transaminase H360M mutant expressed in Escherichia coli Rosetta 2 (DE3) assessed as conversion of 3-hydroxy kynurenine to xanthurenic-acid using 3-D,L hydroxy kynurenine as substrate preincubated with PLP cofactor and enzyme and 30 mins later incubated with 3-D,L-HK and measured after 5 mins by microplate reader assay.

Another assay deals with Aedes aegypti. The assay is described as follows: Non-competitive mixed inhibition of recombinant Aedes aegypti RecLab N-terminal Trx-fused /His6-tagged 3-hydroxykynurenine transaminase H360M mutant expressed in Escherichia coli Rosetta 2 (DE3) using varying level of 3-D,L hydroxy kynurenine as substrate by Lineweaver-Burk plot analysis.
A short description of assay [3]: Binding affinity to recombinant Aedes aegypti RecLab N-terminal Trx-fused/His6-tagged 3-hydroxykynurenine transaminase H360M mutant expressed in Escherichia coli Rosetta 2 (DE3) assessed as inhibition constant for free form of enzyme.
The nature of assay [4]: Binding affinity to recombinant Aedes aegypti RecLab N-terminal Trx-fused/His6-tagged 3-hydroxykynurenine transaminase H360M mutant expressed in Escherichia coli Rosetta 2 (DE3) assessed as inhibition constant for enzyme-substrate complex.

Regarding `Nc1ccccc1C(=O)CCC(=O)O`, affinity in assay [1] was put at a Ki of 300 µM.

As to `Cc1cccc(-c2noc(CCCC(=O)O)n2)c1`, the IC50 (in general, the point on the concentration scale where inhibition reaches its midpoint) in assay [2] was 54 µM.

Turning to `COc1ccc(-c2noc(CCCC(=O)O)n2)cc1`, the IC50 in assay [2] worked out at 101 µM.

Turning to `Cc1ccc(-c2noc(CCCC(=O)O)n2)cc1`, the IC50 in assay [2] amounted to 88 µM.

Consider `O=C(O)CCCc1nc(-c2ccc(Cl)c(Cl)c2)no1`, for which the IC50 in assay [2] is 64 µM.

Consider `O=C(O)CCCc1nc(-c2cccc3ccccc23)no1`, for which, in assay [2], the 50% inhibitory concentration (IC50) was found to be 63 µM.

As for `O=C(O)CCCc1nc(-c2ccc(I)cc2)no1`, the IC50 in assay [2] turned out to be 42 µM.

Take `O=C(O)CCCc1nc(-c2ccc(C(F)(F)F)cc2)no1`: the concentration for half-maximal inhibition (IC50) in assay [2] was 70 µM.

Regarding `O=C(O)CCCc1nc(-c2ccc(Br)cc2)no1`, in assay [2], the IC50 is 110 µM.

Regarding `O=C(O)CCCc1nc(-c2ccc(Cl)cc2)no1`, the IC50 in assay [2] was 294 µM.

For `O=C(O)CCCc1nc(-c2ccccc2)no1`, the IC50 in assay [2] stood at 72 µM. For the same molecule, the inhibition result with Aedes aegypti is “Active”. Besides, the Ki (in general, a measure of affinity in units of concentration, obtained from inhibition or displacement) in assay [3] came to 360 µM; in assay [4] it was 1220 µM.

Consider `O=C(O)CCCc1nc(-c2ccc3c(c2)OCO3)no1`, for which, in assay [2], the IC50 stood at 87 µM.
